US7238376B2, “Black tea extract for prevention of disease” (Rutgers, The State University, priority 2000, dated 2007)

What was measured:
[1] = tested on: Cox-2 gene expression; assay: Cox-2 gene expression in Caco-2 cells (Northern blot / RT-PCR); type: cell-based, human; settings: TF-2 effects seen at 50 to 100 μM
Description: All three polyphenols were tested, TF-1, TF-2 and TF-3.
The effect of TF-2 on the time course of Cox-2 gene expression in Caco-2 cells was then examined. Cox-2 mRNA was detectable in quiescent Caco-2 cells, consistent with the finding that colon cancer cells have elevated Cox-2 gene expression. Fresh serum induced a 2- to 4-fold increase in Cox-2 expression in Caco-2 cells as early as 4 hours after stimulation; this was expected because of the known stimulatory effects of serum factors.
Confluent cultures were serum-deprived for 48 hours. Cells were then treated with 10% fresh fetal bovine serum in the presence or absence of the black tea extracts (10, 20, 40, 50, 80 or 100 μM) to initiate the progression of the cell cycle. Cells were harvested at either 4 or 12 hours for total RNA isolation. Total RNA samples were resolved by electrophoresis on 1% agarose-formaldehyde gel (6 μg per lane) and transferred onto a nylon membrane. Northern blot analysis was performed.
Confluent cultures were first serum-deprived for 48 hours and then stimulated with 10% fresh fetal bovine serum in the absence or presence of black tea extracts. Cells were harvested and total RNA was prepared using a kit (QIAGEN, Chatsworth, Calif.). Total RNA (1 μg) from each cell sample was reverse transcribed into cDNA by incubating with RNase H reverse transcriptase (Gibco BRL, Grand Island, N.Y.) using oligo(dT)12-18 as primer. For PCR amplification, gene specific primers were designed. The sequences of the sense and antisense primers for various genes were: […]
PCR was performed under conditions that allowed the amounts of PCR products to be proportional to the amounts of RNA input. The housekeeping gene, glyceraldehyde-3-phosphate dehydrogenase (GAPDH) was used as an internal control. The PCR products were analyzed by electrophoresis on 1% agarose gel containing 0.5 μg/ml ethidium bromide.

[2] = tested on: human lymphoid leukemia cells and human stomach tumor cells; settings: Hibasami et al. 1998; cited from earlier work
[3] = tested on: W138VA cells; assay: proliferation assay, crystal violet staining; type: cell-based, human; settings: 0, 1, 5, 10, 25 and 50 μM; 4 days
Description: The effects of black tea polyphenols on proliferation of W138 and W138VA cells was examined. W138 diploid fibroblasts have a finite life span whereas the virally transformed W138VA cells are cancerous in nude mice. Both cell types were grown in 24 well plates in the presence of increasing doses of the theaflavin polyphenols, TF-1, TF-2 and TF-3 (0, 1, 5, 10, 25 and 50 μM). Viable cells were stained with crystal violet 4 days after plating. A decrease in staining intensity relative to the untreated control cells were indicative of growth inhibition by the polyphenol compound. Of the three theaflavin polyphenols tested, only TF-2 had significant effects on cells growth. […] The IC50 value for TF-2 and growth inhibition of W138VA cells was estimated to be 3 μM.
Normal human W138 (cell strain AG06814E, PDL=16) and the SV40 virally transformed W138 cells (cell strain AG07217) were obtained from Coriell Institute for Medical Research (Camden, N.J.). Human colon cancer cells, Caco-2 (ATCC #HTB-37) and the matched normal colon cells CCD-33Co (ATCC #CRL-1539) were obtained from the American Type Culture Collection (Rockville, Md.). Cells were cultured in Dulbecco's medium containing 10% fetal bovine serum at 37° C., 5% CO2. […] Cell growth was measured by counting viable cells using the Trypan Blue exclusion method. […] Proliferation was monitored by crystal-violet staining. […]

[4] = tested on: human A431 carcinoma cells; settings: compared with EGCG; Liang et al. 1999; cited from earlier work
[5] = tested on: EGF and PDGF receptors; settings: compared with EGCG; Liang et al. 1999; cited from earlier work
[6] = tested on: normal counterparts; settings: Chen et al. 1998; cited from earlier work
[7] = tested on: Caco-2 colorectal cancer cells, Hs578T breast cancer cells, and SV40-transformed W138 cells; settings: Chen et al. 1998; cited from earlier work

Row | Compound | Cox-2 gene expression in Caco-2 cells [1] | apoptosis in human lymphoid leukemia cells and human stomach tumor cells [2] | differential growth inhibition of W138 versus W138VA cells [3] | inhibiting the growth of human A431 carcinoma cells [4] | reducing autophosphorylation of EGF and PDGF receptors [5] | growth of normal counterparts [6] | growth of human tumor cells [7]
1 | O=c1c(O)cc([C@H]2Oc3cc(O)cc(O)c3C[C@H]2O)cc2c([C@H]3Oc4cc(O)cc(O)c4C[C@H]3O)cc(O)c(O)c12 [TF-1, theaflavin] | failed to affect Cox-2 gene expression | can induce apoptosis | did not exhibit this differential growth inhibition |  |  |  | 
2 | O=C(O[C@@H]1Cc2c(O)cc(O)cc2O[C@@H]1c1cc(O)c(=O)c2c(O)c(O)cc([C@H]3Oc4cc(O)cc(O)c4C[C@H]3OC(=O)c3cc(O)c(O)c(O)c3)c2c1)c1cc(O)c(O)c(O)c1 [TF-3, theaflavin-3,3′-digallate] | failed to affect Cox-2 gene expression | can induce apoptosis | did not exhibit this differential growth inhibition | as potent as EGCG | as potent as EGCG |  | 
3 | (−)epigallocatechin gallate [EGCG] | suppressed Cox-2 gene expression it was not as potent as TF-2 |  |  |  |  | little or no inhibitory effect | inhibits growth
